Data as given in the NIST ThermoML archive (doi:10.1021/je900550v).

Details: 101.33 kPa, Liquid; for speed of sound: Pulse-echo method; for mass density: Vibrating tube method

CCCC(=O)[O-].C[NH2+]CCO [N-methyl-2-hydroxyethylammonium butanoate]
Details | mass density [kg/m3] | speed of sound [m/s] | viscosity [mPa·s]
278.15 K | 1052.71 | 1683.5 | –
278.4 K | 1052.55 | 1682.5 | –
278.65 K | 1052.38 | 1681.5 | –
278.9 K | 1052.21 | 1680.6 | –
279.15 K | 1052.04 | 1679.6 | –
279.4 K | 1051.88 | 1678.7 | –
279.65 K | 1051.71 | 1677.7 | –
279.9 K | 1051.54 | 1676.8 | –
280.15 K | 1051.38 | 1675.8 | –
280.4 K | 1051.21 | 1674.8 | –
280.65 K | 1051.04 | 1673.9 | –
280.9 K | 1050.88 | 1673 | –
281.15 K | 1050.71 | 1672 | –
281.4 K | 1050.54 | 1671.1 | –
281.65 K | 1050.38 | 1670.1 | –
281.9 K | 1050.21 | 1669.2 | –
282.15 K | 1050.02 | 1668.4 | –
282.4 K | 1049.85 | 1667.4 | –
282.65 K | 1049.69 | 1666.6 | –
282.9 K | 1049.52 | 1665.7 | –
283.15 K | 1049.35 | 1664.8 | –
283.4 K | 1049.19 | 1663.8 | –
283.65 K | 1049.02 | 1663 | –
283.9 K | 1048.85 | 1662.1 | –
284.15 K | 1048.68 | 1661.2 | –
284.4 K | 1048.52 | 1660.3 | –
284.65 K | 1048.35 | 1659.4 | –
284.9 K | 1048.18 | 1658.5 | –
285.15 K | 1048.02 | 1657.7 | –
285.4 K | 1047.85 | 1656.8 | –
285.65 K | 1047.68 | 1655.9 | –
285.9 K | 1047.52 | 1655 | –
286.15 K | 1047.35 | 1654.2 | –
286.4 K | 1047.18 | 1653.3 | –
286.65 K | 1047.01 | 1652.4 | –
286.9 K | 1046.85 | 1651.6 | –
287.15 K | 1046.68 | 1650.7 | –
287.4 K | 1046.51 | 1649.9 | –
287.65 K | 1046.34 | 1649 | –
287.9 K | 1046.17 | 1648.1 | –
288.15 K | 1046.01 | 1647.3 | 609.15
288.4 K | 1045.84 | 1646.5 | –
288.65 K | 1045.67 | 1645.6 | –
288.9 K | 1045.5 | 1644.8 | –
289.15 K | 1045.34 | 1643.9 | –
289.4 K | 1045.17 | 1643 | –
289.65 K | 1045 | 1642.2 | –
289.9 K | 1044.83 | 1641.4 | –
290.15 K | 1044.66 | 1640.5 | 516.28
290.4 K | 1044.5 | 1639.7 | –
290.65 K | 1044.33 | 1638.9 | –
290.9 K | 1044.16 | 1638 | –
291.15 K | 1043.99 | 1637.2 | –
291.4 K | 1043.82 | 1636.3 | –
291.65 K | 1043.65 | 1635.5 | –
291.9 K | 1043.48 | 1634.7 | –
292.15 K | 1043.32 | 1633.9 | –
292.4 K | 1043.15 | 1633.1 | –
292.65 K | 1042.98 | 1632.3 | –
292.9 K | 1042.81 | 1631.5 | –
293.15 K | 1042.64 | 1630.6 | 433.8
293.4 K | 1042.47 | 1629.8 | –
293.65 K | 1042.3 | 1629 | –
293.9 K | 1042.13 | 1628.2 | –
294.15 K | 1041.96 | 1627.4 | –
294.4 K | 1041.79 | 1626.6 | –
294.65 K | 1041.63 | 1625.7 | –
294.9 K | 1041.45 | 1624.9 | –
295.15 K | 1041.29 | 1624.1 | –
295.4 K | 1041.12 | 1623.3 | –
295.65 K | 1040.95 | 1622.5 | 352.2
295.9 K | 1040.78 | 1621.7 | –
296.15 K | 1040.61 | 1620.9 | –
296.4 K | 1040.44 | 1620.1 | –
296.65 K | 1040.27 | 1619.3 | –
296.9 K | 1040.1 | 1618.5 | –
297.15 K | 1039.93 | 1617.7 | –
297.4 K | 1039.76 | 1617 | –
297.65 K | 1039.59 | 1616.1 | –
297.9 K | 1039.42 | 1615.3 | –
298.15 K | 1039.24 | 1614.5 | 298.95
298.4 K | 1039.08 | 1613.8 | –
298.65 K | 1038.9 | 1613 | –
298.9 K | 1038.73 | 1612.2 | –
299.15 K | 1038.56 | 1611.4 | –
299.4 K | 1038.39 | 1610.6 | –
299.65 K | 1038.22 | 1609.8 | –
299.9 K | 1038.05 | 1609 | –
300.15 K | 1037.88 | 1608.2 | –
300.4 K | 1037.71 | 1607.4 | –
300.65 K | 1037.54 | 1606.6 | 256.7
300.9 K | 1037.37 | 1605.8 | –
301.15 K | 1037.2 | 1605 | –
301.4 K | 1037.03 | 1604.2 | –
301.65 K | 1036.87 | 1603.4 | –
301.9 K | 1036.7 | 1602.6 | –
302.15 K | 1036.54 | 1601.8 | –
302.4 K | 1036.38 | 1601 | –
302.65 K | 1036.2 | 1600.2 | –
302.9 K | 1036.04 | 1599.5 | –
303.15 K | 1035.87 | 1598.7 | 219.16
303.4 K | 1035.71 | 1597.9 | –
303.65 K | 1035.54 | 1597.1 | –
303.9 K | 1035.38 | 1596.3 | –
304.15 K | 1035.21 | 1595.5 | –
304.4 K | 1035.04 | 1594.8 | –
304.65 K | 1034.88 | 1594 | –
304.91 K | 1034.71 | 1593.2 | –
305.15 K | 1034.54 | 1592.4 | –
305.4 K | 1034.38 | 1591.6 | –
305.45 K | – | – | 186.26
305.65 K | 1034.21 | 1590.8 | –
305.9 K | 1034.04 | 1590.1 | –
306.15 K | 1033.88 | 1589.3 | –
306.4 K | 1033.71 | 1588.5 | –
306.65 K | 1033.54 | 1587.7 | –
306.9 K | 1033.38 | 1587 | –
307.15 K | 1033.2 | 1586.2 | –
307.4 K | 1033.04 | 1585.4 | –
307.65 K | 1032.87 | 1584.6 | –
307.9 K | 1032.7 | 1583.8 | –
